How the values were obtained:
Assay type in all cases: ADME, organism-based, Canis lupus familiaris
[1] = Pharmacokinetic parameter clearance was determined in fed Beagle dogs after iv administration of 1.5 mg/kg; design: dose 1.5 mg/kg, route intravenous; details: dog, in vivo
[2] = test system: Canis familiaris; test: Pharmacokinetic parameter AUC has been determined in fed Beagle dogs at a dose of 500 mg/kg; design: dose 500 mg/kg; details: dog, in vivo
[3] = Pharmacokinetic parameter Cmax has been determined in fed Beagle dogs at a dose of 500 mg/kg; design: dose 500 mg/kg; details: dog, in vivo
[4] = Pharmacokinetic parameter half-life was determined in fed Beagle dogs after iv administration of 1.5 mg/kg; design: dose 1.5 mg/kg, route intravenous; details: dog, in vivo
[5] = Pharmacokinetic parameter volume was determined in fed Beagle dogs after iv administration of 1.5 mg/kg; design: dose 1.5 mg/kg, route intravenous; details: dog, in vivo, read-out: Volume
[6] = Bioavailability in fed Beagle dogs at a dose of 500 mg/kg; details: dog, in vivo

- clearance [1]: 1.4 mL/min/kg
- AUC [2]: 2150 ng·h/mL
- Cmax [3]: 110 ng/mL
- half-life [4]: 4.5 h
- Vd [5]: 0.5 L/kg
- bioavailability [6]: 0.04%
SMILES: C[C@@H]1CC[C@@]2(OC1)O[C@H]1C[C@H]3[C@@H]4CC[C@H]5C[C@@H](O[C@@H]6O[C@H](CO)[C@@H](O[C@@H]7O[C@H](CO)[C@@H](O)[C@H](O)[C@H]7O)[C@H](O)[C@H]6O)CC[C@]5(C)[C@H]4C(=O)C[C@]3(C)[C@H]1[C@@H]2C [PAMAQUESIDE]

Source: ChEMBL document CHEMBL1129304, “11-Ketotigogenin cellobioside (pamaqueside): a potent cholesterol absorption inhibitor in the hamster” (J Med Chem, 1996)
